Results published in patent publication US12037612B2, “High throughput reaction assembly” (priority 2018, dated 2024).

Tests used:
[1] = target: T1, Taq polymerase (Thermus aquaticus, UniProt P19821); experiment: qPCR (GAPDH detection) with dye added directly into the qPCR reaction; type: biochemical; conditions: increasing dye in the qPCR reaction, final concentration 0.004%, 0.008%, 0.012%, 0.016%, 0.023%; Jurkat total RNA template
T1 construct: purchased New England Biolabs, Ipswich, MA
Protocol: Dyes at a concentration of 0.0003% in a qPCR mix were found not to inhibit Taq polymerase in a qPCR mix in a manner that was detrimental to the reaction. 5-log dilutions of Jurkat total RNA (1 ug, 100 ng, 10 ng, 1 ng, 100 pg) were used as the template RNA for cDNA synthesis using a commercially available thermostable reverse transcriptase (Luna RT). […] 10 minutes, and 95° C. 1 minute. 1 ul cDNA library was added to a qPCR reaction mixture containing Taq polymerase (Luna® Universal qPCR Master Mix (New England Biolabs, Ipswich, MA)) and specific primers were added to detect glyceraldehyde 3-phosphate dehydrogenase (GAPDH) in the presence of xylene cyanol at a final concentration of 0%, 0.004%, 0.008%, 0.012%, 0.016%, or 0.023%, or Xylene cyanol and tartrazine both in the concentration range described above.

[2] = test system: reverse transcriptase (Luna RT); experiment: cDNA synthesis with dye in the cDNA reaction, read out by qPCR (GAPDH); type: biochemical; conditions: increasing dye in the cDNA reaction, final concentration 0.004%, 0.008%, 0.012%, 0.016%, 0.023%; Jurkat total RNA template
Protocol: 5-log dilutions of Jurkat total RNA (1 ug, 100 ng, 10 ng, 1 ng, 100 pg) were used as the template RNA for cDNA synthesis using Luna RT in the presence of xylene cyanol at a final concentration of 0%, 0.004%, 0.008%, 0.012%, 0.016%, or 0.023%, or Xylene cyanol and tartrazine both in the concentration range described above. […] 10 minutes, and 95° C. 1 minute. 1 ul cDNA library was added to a qPCR reaction mixture containing Taq polymerase and specific primers were added to detect GAPDH.

T1 sequence (P19821 whole entry): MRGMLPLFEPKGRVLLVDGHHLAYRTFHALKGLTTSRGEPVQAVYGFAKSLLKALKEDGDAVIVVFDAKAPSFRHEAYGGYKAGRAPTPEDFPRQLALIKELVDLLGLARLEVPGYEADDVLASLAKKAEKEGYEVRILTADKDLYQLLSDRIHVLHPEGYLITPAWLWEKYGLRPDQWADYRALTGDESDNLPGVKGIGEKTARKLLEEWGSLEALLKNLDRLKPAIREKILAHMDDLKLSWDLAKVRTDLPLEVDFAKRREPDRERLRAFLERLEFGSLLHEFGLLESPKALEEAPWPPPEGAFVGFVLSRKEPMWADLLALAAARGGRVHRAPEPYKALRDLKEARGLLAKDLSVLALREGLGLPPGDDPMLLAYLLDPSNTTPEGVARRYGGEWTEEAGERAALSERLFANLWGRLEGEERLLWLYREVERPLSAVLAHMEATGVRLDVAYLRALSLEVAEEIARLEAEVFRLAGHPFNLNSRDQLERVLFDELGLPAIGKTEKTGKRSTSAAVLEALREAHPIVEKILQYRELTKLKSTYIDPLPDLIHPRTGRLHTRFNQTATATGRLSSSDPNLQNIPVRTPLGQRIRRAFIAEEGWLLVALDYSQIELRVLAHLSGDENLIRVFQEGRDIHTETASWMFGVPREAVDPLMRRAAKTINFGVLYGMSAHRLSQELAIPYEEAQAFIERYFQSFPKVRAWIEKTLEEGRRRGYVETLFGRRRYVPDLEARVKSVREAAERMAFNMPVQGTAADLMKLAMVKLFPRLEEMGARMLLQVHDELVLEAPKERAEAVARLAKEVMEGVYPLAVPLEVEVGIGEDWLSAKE

For `CCN=C1C=CC(=C(c2ccc(NCC)c(C)c2)c2ccc(S(=O)(=O)[O-])cc2S(=O)(=O)O)C=C1C.[Na+]` [xylene cyanol], the “Cq value in qPCR / inhibition of Taq polymerase” value [1] was “higher Cq value, indicating stronger inhibition of Taq polymerase” and the “Cq value / inhibition of the reverse transcriptase” value [2] was “did not change the Cq value, indicating that no detectable inhibition of the reverse transcriptase occurred”.
